Data taken from patent publication US11078202B2, “β-lactamase inhibitor and use thereof” (priority 2018, dated 2021).
Structures can show the parent of a compound that is named as a salt.

Key:
Format in all cases: cell-based
[1] = system: Klebsiella pneumoniae XNWB 0006; assay: MIC assay of test compounds combined with imipenem (4 μg/mL); conditions: imipenem 4 μg/mL fixed
Outline: (§1)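 Each compound was titrated in CAMHB in the presence of a constant partner antibiotic and challenged with a bacterial suspension prepared to OD600 0.1-0.15 in saline, then diluted 300-fold. Incubation lasted 16-20 h at 35±2 °C in air.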

[2] = system: Klebsiella pneumoniae XNWB 0002; assay: as above; conditions: imipenem 4 μg/mL fixed
Outline: as §1

[3] = system: Acinetobacter baumannii XNWB 0007; assay: as above; conditions: imipenem 4 μg/mL fixed
Outline: as §1

[4] = system: Pseudomonas aeruginosa XNWB 0008; assay: as above; conditions: imipenem 4 μg/mL fixed
Outline: as §1

[5] = system: Klebsiella pneumoniae XNWB 0001; assay: as above; conditions: imipenem 4 μg/mL fixed
Outline: as §1

[6] = system: Klebsiella pneumoniae XNWB 0004; assay: as above; conditions: imipenem 4 μg/mL fixed
Outline: as §1

[7] = system: Klebsiella pneumoniae XNWB 0003; assay: as above; conditions: imipenem 4 μg/mL fixed
Outline: as §1

[8] = system: Klebsiella pneumoniae XNWB 0005; assay: as above; conditions: imipenem 4 μg/mL fixed
Outline: as §1

[9] = system: Klebsiella pneumoniae XNWB 0006; assay: MIC assay of test compounds combined with ceftazidime (8 μg/mL); conditions: ceftazidime 8 μg/mL fixed
Outline: as §1

[10] = system: Klebsiella pneumoniae XNWB 0002; assay: as above; conditions: ceftazidime 8 μg/mL fixed
Outline: as §1

[11] = system: Acinetobacter baumannii XNWB 0007; assay: as above; conditions: ceftazidime 8 μg/mL fixed
Outline: as §1

[12] = system: Pseudomonas aeruginosa XNWB 0008; assay: as above; conditions: ceftazidime 8 μg/mL fixed
Outline: as §1

[13] = system: Klebsiella pneumoniae XNWB 0001; assay: as above; conditions: ceftazidime 8 μg/mL fixed
Outline: as §1

[14] = system: Klebsiella pneumoniae XNWB 0004; assay: as above; conditions: ceftazidime 8 μg/mL fixed
Outline: as §1

[15] = system: Klebsiella pneumoniae XNWB 0003; assay: as above; conditions: ceftazidime 8 μg/mL fixed
Outline: as §1

[16] = system: Klebsiella pneumoniae XNWB 0005; assay: as above; conditions: ceftazidime 8 μg/mL fixed
Outline: as §1

Structure (SMILES) | The minimum concentration of test compounds combined with imipenem (4 μg/mL) for bacteriostasis [1] | The minimum concentration of test compounds combined with imipenem (4 μg/mL) for bacteriostasis [2] | The minimum concentration of test compounds combined with imipenem (4 μg/mL) for bacteriostasis [3] | The minimum concentration of test compounds combined with imipenem (4 μg/mL) for bacteriostasis [4] | The minimum concentration of test compounds combined with imipenem (4 μg/mL) for bacteriostasis [5] | The minimum concentration of test compounds combined with imipenem (4 μg/mL) for bacteriostasis [6] | The minimum concentration of test compounds combined with imipenem (4 μg/mL) for bacteriostasis [7] | The minimum concentration of test compounds combined with imipenem (4 μg/mL) for bacteriostasis [8] | The minimum concentration of test compounds combined with ceftazidime (8 μg/mL) for bacteriostasis [9] | The minimum concentration of test compounds combined with ceftazidime (8 μg/mL) for bacteriostasis [10] | The minimum concentration of test compounds combined with ceftazidime (8 μg/mL) for bacteriostasis [11] | The minimum concentration of test compounds combined with ceftazidime (8 μg/mL) for bacteriostasis [12] | The minimum concentration of test compounds combined with ceftazidime (8 μg/mL) for bacteriostasis [13] | The minimum concentration of test compounds combined with ceftazidime (8 μg/mL) for bacteriostasis [14] | The minimum concentration of test compounds combined with ceftazidime (8 μg/mL) for bacteriostasis [15] | The minimum concentration of test compounds combined with ceftazidime (8 μg/mL) for bacteriostasis [16]
NCCCCc1nnc([C@@H]2CC3(CC3)[C@@H]3CN2C(=O)N3OS(=O)(=O)O)o1 [Example 7, (1R,4S)-4-(5-(4-aminobutyl)-1,3,4-oxadiazol-2-yl)-6-oxo-5,7-diazaspiro[bicycle[3.2.1]octane-2,1′-cyclopropan]-7-yl sulfate] | A (A: <8 μg/mL) | A (A: <8 μg/mL) | B (B: 8-16 μg/mL) | B (B: 8-16 μg/mL) | A (A: <8 μg/mL) | A (A: <8 μg/mL) | A (A: <8 μg/mL) | A (A: <8 μg/mL) | A (A: <8 μg/mL) | A (A: <8 μg/mL) | C (C: 16-128 μg/mL) | C (C: 16-128 μg/mL) | B (B: 8-16 μg/mL) | B (B: 8-16 μg/mL) | B (B: 8-16 μg/mL) | B (B: 8-16 μg/mL)
O=C(NC1CCNC1)[C@@H]1CC2(CC2)[C@@H]2CN1C(=O)N2OS(=O)(=O)O (stereo partly drawn) [Example 28, (1R,4S)-6-oxo-4-(pyrrolidin-3-ylaminoformyl)-5,7-diazaspiro[bicyclo[3.2.1]octane-2,1′-cyclopropan]-7-yl sulfate] | A (A: <8 μg/mL) | A (A: <8 μg/mL) | C (C: 16-128 μg/mL) | A (A: <8 μg/mL) | A (A: <8 μg/mL) | A (A: <8 μg/mL) | A (A: <8 μg/mL) | A (A: <8 μg/mL) | A (A: <8 μg/mL) | A (A: <8 μg/mL) | C (C: 16-128 μg/mL) | A (A: <8 μg/mL) | A (A: <8 μg/mL) | B (B: 8-16 μg/mL) | A (A: <8 μg/mL) | A (A: <8 μg/mL)
